Read-outs that look alike come from different tables or passages of the source.
Experiments:
[1] = target: T1, His-tagged recombinant human ABL1 (Homo sapiens (Human), UniProt P00519); conditions: read-out: c-Abl IC50; 25 µM ATP, Abltide substrate, 30° C. 30-min
Procedure: (§3) ADP-Glo assay kit was purchased from Promega. Magnesium chloride (MgCl2), bovine serum albumin (BSA), ethylene glycol-bis(β-aminoethyl ether)-N,N,N′,N′-tetraacetic acid (EGTA), tween-20, 1,4-dithiothreitol (DTT) and dimethyl sulfoxide (DMSO) were purchased from Sigma-Aldrich. HEPES buffer was purchased from Gibco. ABL1 kinase and Abltide were purchased from Signalchem.
(§4) c-Abl kinase activity was measured by Promega’s ADP-Glo ® Assay. In this assay, His-tagged recombinant human ABL1 (0.25 ng/µl) is incubated with 5 µL of compounds (0.5% DMSO), 5 µL of Abltide (0.01 µg/µl) and 5 µL of ATP (25 µM) in buffer (50 mM HEPES,7.5; 10 mM MgCl2; 1 mM EGTA; 0.05% BSA; 0.01% Tween-20; 2 mM DTT.). The assay was started by incubating the reaction mixture in a 96-well plate at 30° C. for 30-min. After the incubation, 25 µL ADP-Glo reagent was added and the reaction was incubated at room temperature for 40-min to stop the reaction and degrade residual ATP. The ADP product was then converted to ATP by adding 50 µL per well of detection reagent. Luminescence was detected after 30-min room temperature incubation with the Molecular device I3X plate reader. The IC50 values were calculated from a series of percent inhibition values determined at a range of inhibitor concentration using software routines as implemented in the GraphPad Prism 7 software and Sigma Plot 13.0.

LRRK2 (WT) = LRRK2 (WT) (Homo sapiens (Human), UniProt Q5S007); assay: LRRK2 kinase assay (Adapta); assay type: biochemical; conditions: 70 µM ATP, LRRKtide substrate
Procedure: (§1) LRRK2 and LRRK2 G2019S Kinase Assay
(§2) The LRRK2 and LRRK2 G2019S kinase assays were performed using the AdaptaTM technology in ThermoFisher Scientific. This experiment was carried out according to the supplier’s protocol. Briefly, assay conditions were as follows. The mixture of substrate (LRRKtide) and each kinase was prepared in 50 mM Tris pH 8.5, 0.01% BRIJ-35, 10 mM MgCl2, 1 mM EGTA, 0.02% NaN3. Assays were performed in the presence of 70 µM ATP and 100 µM ATP (KmATP) in LRRK2 and LRRK2 G2019S, respectively. The reaction was progressed at room temperature for 1 hour. Upon completion of kinase reaction, 5 µL of Detection Mix was added and after 60 min incubation time, the emission ratio of 665/615 nm was calculated

LRRK2 G2019S = LRRK2 G2019S (Homo sapiens (Human), UniProt Q5S007, G2019S); assay: LRRK2 G2019S kinase assay (Adapta); assay type: biochemical; conditions: 100 µM ATP, LRRKtide substrate; read-out: LRRK2_G2019S IC50
LRRK2 G2019S, sequence (Q5S007 whole entry G2019S): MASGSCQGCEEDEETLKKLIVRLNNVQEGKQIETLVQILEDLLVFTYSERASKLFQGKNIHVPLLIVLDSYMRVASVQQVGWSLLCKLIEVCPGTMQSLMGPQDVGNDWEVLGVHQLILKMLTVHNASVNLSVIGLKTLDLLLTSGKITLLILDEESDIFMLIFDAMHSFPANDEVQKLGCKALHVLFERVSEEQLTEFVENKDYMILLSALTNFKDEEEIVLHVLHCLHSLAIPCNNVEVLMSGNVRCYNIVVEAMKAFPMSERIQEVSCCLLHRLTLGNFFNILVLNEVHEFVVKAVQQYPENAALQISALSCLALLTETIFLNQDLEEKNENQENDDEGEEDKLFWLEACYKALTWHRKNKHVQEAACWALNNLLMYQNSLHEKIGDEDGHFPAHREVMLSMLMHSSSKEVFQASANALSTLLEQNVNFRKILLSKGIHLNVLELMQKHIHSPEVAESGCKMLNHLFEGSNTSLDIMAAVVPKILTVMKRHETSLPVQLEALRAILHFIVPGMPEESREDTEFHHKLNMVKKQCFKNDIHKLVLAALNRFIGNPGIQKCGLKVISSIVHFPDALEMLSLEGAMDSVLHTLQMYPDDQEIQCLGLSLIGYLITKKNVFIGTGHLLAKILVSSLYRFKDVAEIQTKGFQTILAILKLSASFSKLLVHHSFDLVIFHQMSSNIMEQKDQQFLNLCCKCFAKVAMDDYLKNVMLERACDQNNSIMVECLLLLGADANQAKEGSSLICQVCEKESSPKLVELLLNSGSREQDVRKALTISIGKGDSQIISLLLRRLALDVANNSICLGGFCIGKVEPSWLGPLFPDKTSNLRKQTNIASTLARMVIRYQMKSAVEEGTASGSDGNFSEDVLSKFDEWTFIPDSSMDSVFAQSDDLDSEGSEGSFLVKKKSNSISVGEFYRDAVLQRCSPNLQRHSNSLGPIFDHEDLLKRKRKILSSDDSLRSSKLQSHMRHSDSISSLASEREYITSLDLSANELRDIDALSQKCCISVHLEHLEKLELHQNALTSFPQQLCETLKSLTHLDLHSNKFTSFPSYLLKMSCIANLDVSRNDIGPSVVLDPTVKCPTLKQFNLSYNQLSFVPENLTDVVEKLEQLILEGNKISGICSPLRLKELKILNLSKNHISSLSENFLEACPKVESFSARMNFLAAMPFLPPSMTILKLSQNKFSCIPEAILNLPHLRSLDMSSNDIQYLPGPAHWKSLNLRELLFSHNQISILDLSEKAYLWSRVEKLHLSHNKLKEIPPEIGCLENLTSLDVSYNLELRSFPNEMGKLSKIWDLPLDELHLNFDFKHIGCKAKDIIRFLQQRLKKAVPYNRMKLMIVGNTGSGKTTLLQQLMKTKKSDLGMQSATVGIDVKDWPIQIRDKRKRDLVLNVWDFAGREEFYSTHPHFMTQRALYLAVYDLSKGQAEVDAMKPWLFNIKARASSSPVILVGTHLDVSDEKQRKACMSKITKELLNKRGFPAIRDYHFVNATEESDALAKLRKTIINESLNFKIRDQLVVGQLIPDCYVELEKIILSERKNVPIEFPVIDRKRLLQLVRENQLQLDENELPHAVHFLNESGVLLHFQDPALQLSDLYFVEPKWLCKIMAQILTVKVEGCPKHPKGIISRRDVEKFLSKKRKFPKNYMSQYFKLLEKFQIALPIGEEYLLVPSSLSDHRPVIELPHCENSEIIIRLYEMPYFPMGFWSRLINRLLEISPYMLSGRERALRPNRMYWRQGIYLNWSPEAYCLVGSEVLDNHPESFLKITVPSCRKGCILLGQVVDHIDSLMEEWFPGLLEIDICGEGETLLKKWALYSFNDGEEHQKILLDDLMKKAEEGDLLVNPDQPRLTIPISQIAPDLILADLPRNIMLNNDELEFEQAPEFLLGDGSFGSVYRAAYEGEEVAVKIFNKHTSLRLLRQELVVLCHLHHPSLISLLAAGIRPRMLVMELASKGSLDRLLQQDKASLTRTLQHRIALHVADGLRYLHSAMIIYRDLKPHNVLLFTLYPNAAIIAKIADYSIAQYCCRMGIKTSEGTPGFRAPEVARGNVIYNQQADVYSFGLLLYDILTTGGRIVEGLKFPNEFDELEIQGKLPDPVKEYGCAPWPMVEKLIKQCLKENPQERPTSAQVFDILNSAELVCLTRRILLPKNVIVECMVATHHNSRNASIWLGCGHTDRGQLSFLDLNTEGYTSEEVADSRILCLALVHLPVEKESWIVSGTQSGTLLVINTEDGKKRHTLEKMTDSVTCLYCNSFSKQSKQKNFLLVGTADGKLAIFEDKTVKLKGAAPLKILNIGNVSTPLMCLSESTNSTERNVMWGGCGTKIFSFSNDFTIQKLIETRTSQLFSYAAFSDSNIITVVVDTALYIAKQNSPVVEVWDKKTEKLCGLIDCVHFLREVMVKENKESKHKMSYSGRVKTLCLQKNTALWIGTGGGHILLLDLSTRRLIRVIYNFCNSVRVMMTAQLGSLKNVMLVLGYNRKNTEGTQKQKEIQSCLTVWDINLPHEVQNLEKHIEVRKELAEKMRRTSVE
Procedure: as §1, §2

[2] = target: GST-tagged recombinant human RIPK2 (Homo sapiens (Human), UniProt O43353); assay: RIP2 Kinase Assay (ADP-Glo); assay type: biochemical; conditions: 25 µM ATP, MBP substrate, 30° C. 60 minutes
GST-tagged recombinant human RIPK2, sequence (O43353 whole entry): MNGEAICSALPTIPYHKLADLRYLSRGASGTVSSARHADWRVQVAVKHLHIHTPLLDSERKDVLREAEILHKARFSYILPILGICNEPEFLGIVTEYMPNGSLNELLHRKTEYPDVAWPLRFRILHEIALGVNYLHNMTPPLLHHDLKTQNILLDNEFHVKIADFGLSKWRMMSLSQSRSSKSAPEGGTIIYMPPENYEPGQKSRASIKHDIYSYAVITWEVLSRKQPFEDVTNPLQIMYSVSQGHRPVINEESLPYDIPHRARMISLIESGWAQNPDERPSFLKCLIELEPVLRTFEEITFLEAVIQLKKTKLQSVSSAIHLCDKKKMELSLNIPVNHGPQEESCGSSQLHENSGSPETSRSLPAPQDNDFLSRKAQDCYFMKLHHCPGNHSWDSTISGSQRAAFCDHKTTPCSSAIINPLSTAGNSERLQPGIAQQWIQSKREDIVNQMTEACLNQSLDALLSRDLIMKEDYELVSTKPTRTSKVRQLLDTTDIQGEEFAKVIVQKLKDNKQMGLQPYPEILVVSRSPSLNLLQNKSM
Procedure: GST-tagged recombinant human RIPK2(25 ng) is incubated with 5 µL of compounds (0.5% DMSO), 5 µL of MBP (0.5 µg/µl) and 5 µL of ATP (25 µM) in buffer (40 mM Tris, 7.5; 20 mM MgCl2; 0.1 mg/ml BSA; 50 µM DTT). The assay was started by incubating the reaction mixture in a 96-well plate at 30° C. for 60 minutes. After the incubation, 25 µL ADP-Glo reagent was added, and the reaction was incubated at 30° C. for 40 minutes to stop the reaction and degrade residual ATP. The ADP product was then converted to ATP by adding 50 µL per well of detection reagent. Luminescence was detected after 30 minutes room temperature incubation with the Molecular device I3X plate reader. The IC50 values were calculated from a series of percent inhibition values determined at a range of inhibitor concentration using software routines as implemented in the GraphPad Prism 7 software or SigmaPlot 13.0.

[3] = test system: IL-6 secretion in BV-2 cell; assay: IL-6 Secretion in BV-2 Cell (L18-MDP stimulated, ELISA); assay type: cell-based; conditions: BV-2 mouse microglia cells, 10 µg/ml L18-MDP, 24 hr
Procedure: IL-6 Secretion in BV-2 Cell
BV-2 mouse microglia cells were kindly provided from Dr. Bae in Korea Institute of Science and Technology (KIST). BV-2 cells were thawed and suspended in Dulbecco’s modified eagle medium (DMEM) supplemented with 10% fetal bovine serum (FBS) and 1% Penicillin/Streptomycin. Cells were seeded into 96 well plates at 2X10^4 cells/well and allowed to attach for 24 hr. On the day of the experiment, various concentration of compounds were treated, and cells were stimulated with 10 µg/ml L18-MDP. After 24 hr incubation, supernatant was collected for cytokine assay.
Absorbance at 450 nm was measured using SpectraMax I3X microplate reader (Molecular Device). Values of media-only wells were subtracted and % inhibition for each compound concentration relative to the DMSO/L18-MDP-treated controls (100%) was calculated.

[4] = target: T1, His-tagged recombinant human ABL1; assay: biochemical
Procedure: as §3, §4

T1 sequence (P00519 whole entry): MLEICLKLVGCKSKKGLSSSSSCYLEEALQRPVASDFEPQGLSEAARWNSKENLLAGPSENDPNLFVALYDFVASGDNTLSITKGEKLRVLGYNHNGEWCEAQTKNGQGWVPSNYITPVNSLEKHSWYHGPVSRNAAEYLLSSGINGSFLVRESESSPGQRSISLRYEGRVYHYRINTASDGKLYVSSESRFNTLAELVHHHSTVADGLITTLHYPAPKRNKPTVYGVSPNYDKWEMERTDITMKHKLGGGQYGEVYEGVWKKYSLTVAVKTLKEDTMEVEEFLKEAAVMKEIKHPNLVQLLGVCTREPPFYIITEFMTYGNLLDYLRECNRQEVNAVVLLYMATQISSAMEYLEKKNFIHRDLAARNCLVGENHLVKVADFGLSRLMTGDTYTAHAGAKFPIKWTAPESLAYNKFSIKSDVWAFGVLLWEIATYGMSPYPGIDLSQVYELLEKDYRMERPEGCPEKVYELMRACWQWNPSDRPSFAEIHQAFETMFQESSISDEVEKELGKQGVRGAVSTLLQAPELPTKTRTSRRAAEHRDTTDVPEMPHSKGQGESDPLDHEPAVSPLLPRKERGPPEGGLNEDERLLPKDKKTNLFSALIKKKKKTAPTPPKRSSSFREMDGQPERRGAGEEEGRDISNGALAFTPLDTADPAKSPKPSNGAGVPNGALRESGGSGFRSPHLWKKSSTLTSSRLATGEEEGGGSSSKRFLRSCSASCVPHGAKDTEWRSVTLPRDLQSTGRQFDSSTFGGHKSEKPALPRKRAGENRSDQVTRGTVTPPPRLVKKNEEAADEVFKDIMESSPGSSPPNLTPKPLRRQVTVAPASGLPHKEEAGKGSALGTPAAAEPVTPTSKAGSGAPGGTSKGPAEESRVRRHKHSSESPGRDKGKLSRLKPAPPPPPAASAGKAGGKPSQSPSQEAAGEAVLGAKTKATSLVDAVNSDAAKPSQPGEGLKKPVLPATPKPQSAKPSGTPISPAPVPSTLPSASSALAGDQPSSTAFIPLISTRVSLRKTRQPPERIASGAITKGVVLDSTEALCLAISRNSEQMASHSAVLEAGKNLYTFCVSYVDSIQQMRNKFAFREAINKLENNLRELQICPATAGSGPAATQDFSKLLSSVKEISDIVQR
LRRK2 (WT), sequence (Q5S007 whole entry, species assumed): as the sequence (Q5S007 whole entry G2019S) above, with S2019G counted along it

| IC50 [1] [nM] | IC50 (LRRK2 (WT)) [nM] | IC50 (LRRK2 G2019S) [nM] | IC50 [2] [nM] | IC50 [3] [nM] | IC50 [4] [nM] | SMILES |
| --- | --- | --- | --- | --- | --- | --- |
| 0.71 | 55.7 | 28 | 11 | 187 | – | O=C(Nc1cc2cc(-c3cnc4[nH]ccc4c3)ccn2n1)[C@@H]1C[C@@H]1F [Example 1, (1S,2S)-N-(5-(1 H-pyrrolo[2,3-b]pyridin-5-yl)pyrazolo[1,5-a]pyridin-2-yl)-2-fluorocyclopropane-1-carboxamide] |
| 7.6 | 36.5 | 15 | 6.67 | 68.6 | – | O=C(Nc1cc2cc(-c3cnc4[nH]ccc4c3Cl)ccn2n1)[C@@H]1C[C@@H]1F [Example 2, (1S,2S)-N-(5-(4-chloro-1 H-pyrrolo[2,3-b]pyridin-5-yl)pyrazolo[1,5-a]pyridin-2-yl)-2-fluorocyclopropane-1-carboxamide] |
| – | – | – | 11.4 | 82.9 | 2.4 | Cc1c(-c2ccn3nc(NC(=O)C4CC4)cc3c2)cnc2[nH]ccc12 [Example 19, N-(5-(4-methyl-1H-pyrrolo[2,3-b]pyridin-5-yl)pyrazolo[1,5-a]pyridin-2-yl)cyclopropanecarboxamide] |
| 7.2 | – | – | 10.2 | 107 | – | O=C(Nc1cc2cc(-c3cnc4[nH]cc(F)c4c3Cl)ccn2n1)[C@@H]1C[C@@H]1F [Example 30, (1S,2S)-N-(5-(4-chloro-3-fluoro-1H-pyrrolo[2,3-b]pyridin-5-yl)pyrazolo[1,5-a]pyridin-2-yl)-2-fluorocyclopropane-1-carboxamide] |

From patent publication US20230339978A1, “COMPOUNDS FOR PREVENTION OR TREATMENT OF NEURODEGENERATIVE DISORDERS” (1ST Biotherapeutics, Inc., priority 2020, published 2023)
